In ChEMBL document CHEMBL3232998, “Spiromastixones A-O, antibacterial chlorodepsidones from a deep-sea-derived Spiromastix sp. fungus” (J Nat Prod, 2014):
Values after ≈ are worked out from the molar mass of the structure shown.

Tested on: Staphylococcus aureus
Assay: Antibacterial activity against Staphylococcus aureus ATCC 29213 after 18 hrs by broth microdilution method
Format: functional
Settings: ATCC 29213, 18 h

Compound | MIC
CCCc1cc(O)c(Cl)c2c1Oc1c(Cl)c(O)c(Cl)c(CCC)c1C(=O)O2 | 4 µg/mL (≈ 9.27 µM)

Tested on: Bacillus thuringiensis
Assay: Antibacterial activity against Bacillus thuringiensis SCSIO BT01 after 18 hrs by broth microdilution method
Format: functional
Settings: SCSIO BT01, 18 h

Compound | MIC
CCCc1cc(O)c(Cl)c2c1Oc1c(Cl)c(O)c(Cl)c(CCC)c1C(=O)O2 | 1 µg/mL (≈ 2.32 µM)

Tested on: Bacillus subtilis
Assay: Antibacterial activity against Bacillus subtilis SCSIO BS01 after 18 hrs by broth microdilution method
Format: functional
Settings: SCSIO BS01, 18 h

Compound | MIC
CCCc1cc(O)c(Cl)c2c1Oc1c(Cl)c(O)c(Cl)c(CCC)c1C(=O)O2 | 1 µg/mL (≈ 2.32 µM)

Tested on: Escherichia coli
Assay: Antibacterial activity against Escherichia coli ATCC 25922 after 18 hrs by broth microdilution method
Format: functional
Settings: ATCC 25922, 18 h

Compound | MIC
CCCc1cc(O)c(Cl)c2c1Oc1c(Cl)c(O)c(Cl)c(CCC)c1C(=O)O2 | > 128 µg/mL

Tested on: Staphylococcus aureus
Assay: Antibacterial activity against methicillin-sensitive Staphylococcus aureus ATCC 29213 after 18 hrs by broth microdilution method
Format: functional, organism-based
Settings: ATCC 29213, 18 h, read-out: IC50

Compound | MIC
CCCc1cc(O)c(Cl)c2c1Oc1c(Cl)c(O)c(Cl)c(CCC)c1C(=O)O2 | 4 µM (≈ 1.73 µg/mL)

Tested on: Staphylococcus aureus
Assay: Antibacterial activity against methicillin-resistant Staphylococcus aureus ATCC 33591 after 18 hrs by broth microdilution method
Format: functional, organism-based
Settings: ATCC 33591, 18 h, read-out: IC50

Compound | MIC
CCCc1cc(O)c(Cl)c2c1Oc1c(Cl)c(O)c(Cl)c(CCC)c1C(=O)O2 | 4 µM (≈ 1.73 µg/mL)

Tested on: Staphylococcus aureus
Assay: Antibacterial activity against methicillin-sensitive Staphylococcus aureus 15 after 18 hrs by broth microdilution method
Format: functional, organism-based
Settings: Staphylococcus aureus, 15, 18 h; read-out: IC50

Compound | MIC
CCCc1cc(O)c(Cl)c2c1Oc1c(Cl)c(O)c(Cl)c(CCC)c1C(=O)O2 | 4 µM (≈ 1.73 µg/mL)

Tested on: Staphylococcus aureus
Assay: Antibacterial activity against methicillin-sensitive Staphylococcus aureus 12-28 after 18 hrs by broth microdilution method
Format: functional, organism-based
Settings: 12-28, 18 h

Compound | IC50
CCCc1cc(O)c(Cl)c2c1Oc1c(Cl)c(O)c(Cl)c(CCC)c1C(=O)O2 | 8 µM

Tested on: Staphylococcus aureus
Assay: Antibacterial activity against methicillin-resistant Staphylococcus aureus 12-33 after 18 hrs by broth microdilution method
Format: functional, organism-based
Settings: 12-33, 18 h, read-out: IC50

Compound | MIC
CCCc1cc(O)c(Cl)c2c1Oc1c(Cl)c(O)c(Cl)c(CCC)c1C(=O)O2 | 8 µM (≈ 3.45 µg/mL)

Tested on: Staphylococcus epidermidis
Assay: Antibacterial activity against methicillin-sensitive Staphylococcus epidermidis ATCC 12228 after 18 hrs by broth microdilution method
Format: functional, organism-based
Settings: ATCC 12228, 18 h, read-out: IC50

Compound | MIC
CCCc1cc(O)c(Cl)c2c1Oc1c(Cl)c(O)c(Cl)c(CCC)c1C(=O)O2 | 4 µM (≈ 1.73 µg/mL)

Tested on: Staphylococcus epidermidis
Assay: Antibacterial activity against methicillin-sensitive Staphylococcus epidermidis 12-6 after 18 hrs by broth microdilution method
Format: functional, organism-based
Settings: 12-6, 18 h

Compound | IC50
CCCc1cc(O)c(Cl)c2c1Oc1c(Cl)c(O)c(Cl)c(CCC)c1C(=O)O2 | 2 µM

Tested on: Staphylococcus epidermidis
Assay: Antibacterial activity against methicillin-resistant Staphylococcus epidermidis 12-8 after 18 hrs by broth microdilution method
Format: functional, organism-based
Settings: 12-8, 18 h, read-out: IC50

Compound | MIC
CCCc1cc(O)c(Cl)c2c1Oc1c(Cl)c(O)c(Cl)c(CCC)c1C(=O)O2 | 4 µM (≈ 1.73 µg/mL)

Tested on: Enterococcus faecalis
Assay: Antibacterial activity against vancomycin-sensitive Enterococcus faecalis ATCC 29212 after 18 hrs by broth microdilution method
Format: functional, organism-based
Settings: ATCC 29212, 18 h, read-out: IC50

Compound | MIC
CCCc1cc(O)c(Cl)c2c1Oc1c(Cl)c(O)c(Cl)c(CCC)c1C(=O)O2 | 16 µM (≈ 6.91 µg/mL)

Tested on: Enterococcus faecalis
Assay: Antibacterial activity against vancomycin-resistant Enterococcus faecalis ATCC 51299 after 18 hrs by broth microdilution method
Format: functional, organism-based
Settings: ATCC 51299, 18 h, read-out: IC50

Compound | MIC
CCCc1cc(O)c(Cl)c2c1Oc1c(Cl)c(O)c(Cl)c(CCC)c1C(=O)O2 | 16 µM (≈ 6.91 µg/mL)

Tested on: Enterococcus faecalis
Assay: Antibacterial activity against vancomycin-sensitive Enterococcus faecalis 12-5 after 18 hrs by broth microdilution method
Format: functional, organism-based
Settings: 12-5, 18 h, read-out: IC50

Compound | MIC
CCCc1cc(O)c(Cl)c2c1Oc1c(Cl)c(O)c(Cl)c(CCC)c1C(=O)O2 | 16 µM (≈ 6.91 µg/mL)

Tested on: Enterococcus faecalis
Assay: Antibacterial activity against vancomycin-resistant Enterococcus faecalis 09-9 after 18 hrs by broth microdilution method
Format: functional, organism-based
Settings: 09-9, 18 h, read-out: IC50

Compound | MIC
CCCc1cc(O)c(Cl)c2c1Oc1c(Cl)c(O)c(Cl)c(CCC)c1C(=O)O2 | 16 µM (≈ 6.91 µg/mL)

Tested on: Enterococcus faecium
Assay: Antibacterial activity against vancomycin-resistant Enterococcus faecium ATCC 700221 after 18 hrs by broth microdilution method
Format: functional, organism-based
Settings: ATCC 700221, 18 h, read-out: IC50

Compound | MIC
CCCc1cc(O)c(Cl)c2c1Oc1c(Cl)c(O)c(Cl)c(CCC)c1C(=O)O2 | 16 µM (≈ 6.91 µg/mL)

Tested on: Enterococcus faecium
Assay: Antibacterial activity against vancomycin-resistant Enterococcus faecium 12-1 after 18 hrs by broth microdilution method
Format: functional, organism-based
Settings: 12-1, 18 h, read-out: IC50

Compound | MIC
CCCc1cc(O)c(Cl)c2c1Oc1c(Cl)c(O)c(Cl)c(CCC)c1C(=O)O2 | 16 µM (≈ 6.91 µg/mL)

Tested on: Enterococcus faecium
Assay: Antibacterial activity against vancomycin-sensitive Enterococcus faecium 12-3 after 18 hrs by broth microdilution method
Format: functional, organism-based
Settings: 12-3, 18 h, read-out: IC50

Compound | MIC
CCCc1cc(O)c(Cl)c2c1Oc1c(Cl)c(O)c(Cl)c(CCC)c1C(=O)O2 | 32 µM (≈ 13.8 µg/mL)

Tested on: Escherichia coli
Assay: Antibacterial activity against extended spectrum beta-lactamase-deficient Escherichia coli ATCC 25922 after 18 hrs by broth microdilution method
Format: functional, organism-based
Settings: ATCC 25922, 18 h, read-out: IC50

Compound | MIC
CCCc1cc(O)c(Cl)c2c1Oc1c(Cl)c(O)c(Cl)c(CCC)c1C(=O)O2 | 64 µM (≈ 27.6 µg/mL)

Tested on: Escherichia coli
Assay: Antibacterial activity against extended spectrum beta-lactamase-deficient Escherichia coli 1515 after 18 hrs by broth microdilution method
Format: functional, organism-based
Settings: Escherichia coli, 1515, 18 h

Compound | IC50
CCCc1cc(O)c(Cl)c2c1Oc1c(Cl)c(O)c(Cl)c(CCC)c1C(=O)O2 | 64 µM

Tested on: Escherichia coli
Assay: Antibacterial activity against extended spectrum beta-lactamase-deficient Escherichia coli 12-14 after 18 hrs by broth microdilution method
Format: functional, organism-based
Settings: 12-14, 18 h, read-out: IC50

Compound | MIC
CCCc1cc(O)c(Cl)c2c1Oc1c(Cl)c(O)c(Cl)c(CCC)c1C(=O)O2 | 64 µM (≈ 27.6 µg/mL)

Tested on: Escherichia coli
Assay: Antibacterial activity against extended spectrum beta-lactamase producing Escherichia coli 12-15 after 18 hrs by broth microdilution method
Format: functional, organism-based
Settings: 12-15, 18 h, read-out: IC50

Compound | MIC
CCCc1cc(O)c(Cl)c2c1Oc1c(Cl)c(O)c(Cl)c(CCC)c1C(=O)O2 | 64 µM (≈ 27.6 µg/mL)

Tested on: Klebsiella pneumoniae
Assay: Antibacterial activity against extended spectrum beta-lactamase producing Klebsiella pneumoniae ATCC 700603 after 18 hrs by broth microdilution method
Format: functional, organism-based
Settings: ATCC 700603, 18 h

Compound | IC50
CCCc1cc(O)c(Cl)c2c1Oc1c(Cl)c(O)c(Cl)c(CCC)c1C(=O)O2 | 256 µM

Tested on: Klebsiella pneumoniae
Assay: Antibacterial activity against extended spectrum beta-lactamase-deficient Klebsiella pneumoniae 7 after 18 hrs by broth microdilution method
Format: functional, organism-based
Settings: Klebsiella pneumoniae, 7, 18 h; read-out: IC50

Compound | MIC
CCCc1cc(O)c(Cl)c2c1Oc1c(Cl)c(O)c(Cl)c(CCC)c1C(=O)O2 | 256 µM (≈ 111 µg/mL)

Tested on: Klebsiella pneumoniae
Assay: Antibacterial activity against NDM-1 producing Klebsiella pneumoniae ATCC BAA-2146 after 18 hrs by broth microdilution method
Format: functional, organism-based
Settings: ATCC BAA-2146, 18 h, read-out: IC50

Compound | MIC
CCCc1cc(O)c(Cl)c2c1Oc1c(Cl)c(O)c(Cl)c(CCC)c1C(=O)O2 | 256 µM (≈ 111 µg/mL)

Tested on: Klebsiella pneumoniae
Assay: Antibacterial activity against extended spectrum beta-lactamase-deficient Klebsiella pneumoniae 12-4 after 18 hrs by broth microdilution method
Format: functional, organism-based
Settings: 12-4, 18 h

Compound | IC50
CCCc1cc(O)c(Cl)c2c1Oc1c(Cl)c(O)c(Cl)c(CCC)c1C(=O)O2 | 128 µM

Tested on: Klebsiella pneumoniae
Assay: Antibacterial activity against extended spectrum beta-lactamase producing Klebsiella pneumoniae 12-8 after 18 hrs by broth microdilution method
Format: functional, organism-based
Settings: 12-8, 18 h, read-out: IC50

Compound | MIC
CCCc1cc(O)c(Cl)c2c1Oc1c(Cl)c(O)c(Cl)c(CCC)c1C(=O)O2 | 128 µM (≈ 55.3 µg/mL)

Tested on: Staphylococcus aureus
Assay: Ratio of levofloxacin IC50 to compound IC50 for methicillin-resistant Staphylococcus aureus 12-33 after 18 hrs by broth microdilution method
Format: functional
Settings: not given

Compound | Ratio IC50
CCCc1cc(O)c(Cl)c2c1Oc1c(Cl)c(O)c(Cl)c(CCC)c1C(=O)O2 | 2
